Earlier results, collected in US4440778A, “Anti-inflammatory analgesic cataplasm and process for producing the same” (Kowa Co., Ltd., priority 1981, dated 1984).

Key:
[1] = administered orally
[2] = not given; remark: listed apart in the source
[3] = mixed with and suspended in base components, pH 7 or higher

COc1ccc2c(c1)c(CC(=O)O)c(C)n2C(=O)c1ccc(Cl)cc1 [indomethacin, Indomethacin]
adverse effects: central nervous system troubles [1]: central nervous system troubles such as frontal head ache, drowsiness, dizziness and mental disorders | adverse effects: gastroenteric troubles [1]: gastroenteric troubles such as decreased appetite, nausea, vomiting, indigestion, diarrhoea and stomach ache | absorbability through the skin in a pH range of 7 or higher [3]: less absorbable through the skin | percutaneous absorption (stratum corneum and basal cell layer act as barriers): not subject to percutaneous absorption | chemical stability when dissolved in an alkaline solution ([2]; alkaline solution): chemically unstable and readily decomposable | solubility in an alkaline solution ([2]; alkaline solution): soluble in an alkaline solution | stability in a pH range of 7 or higher [2, 3]: less stable | solubility in water ([2]; water): insoluble in water
